Values quoted from earlier work as cited in patent US20160199302A1, “Pharmaceutical Composition Comprising Temozolomide With Improved Stability and Process for Manufacturing the Same” (Samyang Biopharmaceuticals Corporation, priority 2012, published 2016).

Details: background

- Solubility in water: water-insoluble
SMILES: Cn1nnc2c(C(N)=O)ncn2c1=O [temozolomide, 3,4-dihydro-3-methyl-4-oxoimidazo[5,1-d]-as-tetrazine-8-carboxamide]
